The text below walks through data of US6380183B1, “Treatment of diseases involving cyst formation” (Scios, Inc., priority 1998, dated 2002).

Data set [1] deals with isolated working rat heart. To be noted: isolated working rat heart model; cited from earlier work.
A further data set relates to human ADPKD cells. The data set is described as follows: Promega Cell titer 96 MTT proliferation assay on human ADPKD cells. The class given is cell-based. The protocol:
In this experiment, the effect of concentrations from […] to 10^−6 M of the known PTBR agonist, Ro5-4864 on the rate of proliferation of human autosomal dominant polycystic kidnay disease (ADPKD) cells was examined.
Epithelial cells from human ADPKD kidneys have been cultured from the domes of cysts and maintained in primary culture through several passages.
The rate of cell proliferation was determined using the Promega Cell titer 96 MTT Assay method. This assay is a modification of that described by Mosmann T 1983 J Immunol Meth. 65, 55. […] The relation between cell number and O.D. was linear, and r^2 was >0.98. To determine the effect of agonists on the rate of proliferation, approximately 4000 cells were seeded into individual chambers of a 96-well plate. The cells were incubated initially in DME/F12 medium supplemented only with penicillin, streptomycin, ITS and 1% FBS. After 24 hours,.the FBS was reduced to 0.002% (ITS deleted) to arrest growth. This small amount of serum was needed to potentiate cell attachment to the plastic surface. The human ADPKD cells were then cultured for 48 hours, after adding the cAMP (a stimulator of cell proliferation) at a concentration of 100 μM. A control and forskolin group were examined as well. Preliminary studies determined that growth was sustained over this entire interval.
Thereafter the effect of a range of concentrations from 10^−12 to 10^−6 M of the known PTBR agonist, Ro5-4864 on the rate of proliferation of […] pretreated with cAMP or not treated (baseline proliferation) was examined. The results are graphically illustrated in FIG. 6. Each data set shown in FIG. 6 is mean, and was obtained from six determinations. Accordingly, the results are highly statistically significant.
For orientation: Formazan colour is commonly taken as a measure of viable cells.

The subject of the next data set is human atrial strips. As to conditions: not antagonized by PK 11195; cited from earlier work.
The next data set concerns Langendorf rat heart. As to conditions: cited from earlier work.
Data set [2] has as its system guinea pig heart preparation. As to conditions: Ro5-4864 effects reversed by PK 11195; cited from earlier work.
Another data set concerns polycystic cpk mice. As to conditions: cited from earlier work.

Take `CCC(C)N(C)C(=O)c1cc2ccccc2c(-c2ccccc2Cl)n1` (centres unmarked) [PK 11195, 1-(2-chlorophenyl)-N-methyl-N-(1-methylpropyl)-3-isoquinoline carboxamide]: in data set [1], the cardiac function result is “depress cardiac function”.
Consider `CN1C(=O)CN=C(c2ccc(Cl)cc2)c2cc(Cl)ccc21` [Ro5-4864], for which, in the data set with human ADPKD cells (human ADPKD cells), the “visual observation of the cells: growth arrest versus cell killing” value was “arresting cell growth and not be killing the cells”. The basal cell proliferation result in the data set on human ADPKD cells (human ADPKD cells not treated with cAMP (baseline), all concentrations examined, 10^-12 to 10^-6 M, MTT O.D., six determinations) is reported as “blocked”. Further, the “cAMP stimulated cell proliferation” value with human ADPKD cells (human ADPKD cells pretreated with 100 μM cAMP, all concentrations examined, 10^-12 to 10^-6 M, MTT O.D., six determinations) is “blocked”. In the data set on human atrial strips, the “depressant effect on the contraction amplitude (negative inotropic effect)” value is 20%. In addition, the cardiac function entry in data set [1] is listed as “depress cardiac function”. In addition, in the data set with Langendorf rat heart (isolated perfused Langendorf rat heart), the “heart rate and left ventricular contractility” value is listed as “without affecting”. In the data set with Langendorf rat heart (isolated perfused Langendorf rat heart, effect not antagonized by PK 11195), the coronary flow entry is recorded as “increase coronary flow”. In addition, in data set [2], the “duration of intracellular action potential and contractility” value (“duration” for short) is “decreased”.
In the case of `O=C1CN=C(c2ccccc2Cl)c2cc([N+](=O)[O-])ccc2N1` [clonazepam], the “duration” value in data set [2] is given as “ineffective”.
For `CN1C(=O)CN=C(c2ccccc2)c2cc(Cl)ccc21` [diazepam], the contractile force entry in the data set with Langendorf rat heart (Langendorf rat heart) is given as “increased contractile force”. The “duration” value in data set [2] is “less effective”.
On to `CC(=O)O[C@H]1C(=O)[C@@]2(C)[C@H]([C@H](OC(=O)c3ccccc3)[C@]3(O)C[C@H](OC(=O)[C@H](O)[C@@H](NC(=O)c4ccccc4)c4ccccc4)C(C)=C1C3(C)C)[C@]1(OC(C)=O)CO[C@@H]1C[C@@H]2O` [taxol], for which, in the data set with polycystic cpk mice, the “progression of PKD” value is given as “inhibit the progression of PKD” and the survival entry is “prolongs the survival”.
